# In patent publication US20120122830A1 (King Faisal Specialist Hospital & Research Centre, priority 2008, published 2012):
# Where two headings read alike, the source gives them in different places.
# Assays:
# [1] = rats and mice; Akwa et al. 2001; cited from earlier work
# [2] = system: B104 cells; experiment: Necrotic effect of fibrillary form of human Aβ1-42 peptide on B104 cells; type: cell-based, Rat
# Protocol: (§1) Rat B104 neuroblastoma is chosen as the cell culture model due to its neuronal phenotype when grown in serum free medium (Schubert et al. Nature 1974; 249: 224-27). B104 cells are routinely grown in flasks of 75 cm^2 with complete culture medium containing Dulbecco's Modified Eagle Medium (DMEM) supplemented with 2 mM L-glutamine, penicillin G (50 U/ml), streptomycin sulfate (50 μg/ml), 10% fetal calf serum, and 5% horse serum. They are sub-cultured every week and the culture medium is changed every three days. Cultures are maintained at 37° C. in a humidified incubator in 90% air and 10% CO2 atmosphere. For the experiments, the cells are plated at the required density, in serum complete medium for 24 H and then the medium is replaced with a serum free one containing or not the desired treatment.
# Aβ1-42 is obtained from Bachem and prepared in fibril form known to mediate neurotoxicity (Lorenzo et al. Proc Natl Acad Sci USA 1994; 91:12243-47). Aβ1-42 fibrils are produced by dissolving the peptide in double distilled water (ddH2O) to 10 µg/μl, followed by incubation under agitation (300-400 rpm) for one week at 37° C.
# Flow cytometry is utilized to look for the percentage of apoptosis or necrosis that reflects the neurotoxic effect of Aβ1-42 as well as the neuroprotective effect of neurosteroids by staining cells with annexin V that has affinity to phosphatidyl serine (PS) (Van Genderen et al. 2006). In normal viable cells, PS is located on the cytoplasmic side of the cell membrane. However, in apoptotic cells, PS is translocated from the inner to the outer leaflets of the plasma membrane where annexin V could bind to PS. Moreover, annexin V can pass through the compromised membrane of necrotic cells and bind to PS in the anterior of the cell (Van Genderen et al. Nat Protoc 2006; 1:363-67).
# Cells are seeded in 6 well plates at the required density and grown for 24H. They are then treated according to two procedures: either with specific steroids and then Aβ1-42 or with Aβ1-42 followed by steroids. A kinetic study is performed at 6, 12 or 24 H depending on the concentration of the peptide.
# For flow cytometry analysis, cells are washed with PBS and harvested by trypsinization. After centrifugation and resuspension in annexin binding buffer and incubation for 15 min with 5-25 μl of annexin V conjugate, cells are washed with annexin binding buffer and examined by flow cytometry. Data is examined by using appropriate software, and scattergrams are analyzed.
# [3] = system: B104 cells; experiment: Neuroprotection by PREGS against fibrillary human Aβ1-42 peptide toxicity on B104 cells; type: cell-based, Rat; design: protection against Aβ1-42 peptide-induced toxicity: dose or concentration left out as unconfirmed
# Protocol: as §1
# Aβ1-42 is obtained from Bachem and prepared in fibril form known to mediate neurotoxicity (Lorenzo et al. Proc Natl Acad Sci USA 1994; 91:12243-47). Aβ1-42 fibrils are produced by dissolving the peptide in double distilled water (ddH2O) to 10 µg/μl, followed by incubation under agitation (300-400 rpm) for one week at 37° C. […]
# For flow cytometry analysis, cells are washed with PBS and harvested by trypsinization. […] Data is examined by using appropriate software, and scattergrams are analyzed.
# [4] = system: B104 cells; experiment: Neurotrophic activity: neuronal outgrowth in B104 cells cultured at low density; type: cell-based, Rat; conditions: 5 μM PREGS during 7 days, compared to control cells
# Protocol: as §1
# For this purpose, […] acid (95:5), washed and incubated for 30 min in PBS containing 2% bovine serum albumin (BSA) to block non specific binding. Immunostaining of B104 cells is performed for 2 H at room temperature (RT) with appropriate dilutions of primary antibodies. Then, cells are rinsed and incubated with sheep anti-mouse IgG antibodies (Sigma) in PBS/BSA, for 2 H at RT. After being washed, the immunostained cells are examined under microscope (a Leica or Zeiss Axiovert 135M microequipped with an epifluorescence system or optical microscope Nikon Labophot 2).
compound,measurement,setting,value
CC(=O)[C@@H]1CC[C@@H]2[C@H]3CC=C4C[C@H](OS(=O)(=O)O)CC[C@@]4(C)[C@@H]3CC[C@]21C [ent-PREGS],potency in stimulating memory relative to natural PREGS,[1],more potent
"Aβ1-42: fibrillary form of human β-amyloid peptide Aβ1-42, obtained from Bachem","necrosis, dose dependence",[2],significant dose-dependent necrosis
same,necrotic effect,"[2]; B104 cells, 10 μM human Aβ1-42 peptide, 6 h, compared to control cells",considerable necrotic effect
same,time after treatment at which necrotic effect was demonstrated,"[2]; B104 cells, fAβ1-42",≤ 6 H
same,"necrosis, dose dependence","[2]; B104 cells, increasing from 5 μM to 20 μM of fAβ1-42 peptide",significant dose-dependent necrosis
pregnenolone sulfate [PREGS],protection against fAβ1-42 peptide-induced toxicity,"[3]; PREGS at 20 μM, 20 μM fAβ1-42 peptide, observed at 24H, maintained until 96H",able to protect
same,protection against Aβ1-42 peptide-induced toxicity,"[3]; observed at 24 h, maintained until 96 h",able to protect
same,neuronal cell outgrowth,[4],Striking neuronal cell outgrowth
